Assay results published in patent US9079854B2 (priority 2007, dated 2015).
Where two headings read alike, the source gives them in different places.

Experiments:
[1] = molecular target: T1, human CB1 (hCB1) receptor (Homo sapiens, UniProt P21554); assay: CB1 binding assay, competitive binding of [3H]CP 55940; design: % Inhibition of Control Specific Binding CB1: concentration or dose not given beside the values
T1 construct: expressed in transfected cells; host or cells: CHO (Chinese hamster ovary) cells, membranes
Summary of the method: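 CHO cell membranes expressing human CB1 (25 μg protein) incubated 120 min at 37 °C with 0.5 nM [3H]CP 55940 in Tris-HCl pH 7.4 buffer with MgCl2, EDTA, 0.3% BSA. Filtration and scintillation counting; compound tested at 1 μM, given as percent inhibition of control specific binding.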

[2] = test system: tactile allodynia in a spinal nerve ligation neuropathic pain model; assay: Lumbar 5/6 spinal nerve ligation neuropathic pain model, mechanical paw withdrawal threshold (von Frey); type: in vivo, rat
Excerpt: Neuropathic pain was induced following the methods of Kim and Chung. Kim S H, Chung J M. An experimental model for peripheral neuropathy produced by segmental spinal nerve ligation in the rat. Pain 1992; 50:355-63. Rats were anesthetized and placed prone under a microsurgical apparatus. A midline incision was made on the back, and the right paraspinal muscles were separated from the spinous processes at the L4-S2 levels. The L6 transverse process was carefully removed, and the L4/5 spinal nerves were identified. The L5 nerve was tightly ligated with a 6-0 silk suture. The right L6 spinal nerve was then located just caudal and medial to the sacroiliac junction and tightly ligated with a silk suture.
Two weeks later after spinal nerve ligation, Intrathecal catheters (PE-10 tubing) was inserted into the rats while they were anesthetized with isoflurane, as described by Yaksh and Rudy. Yaksh T L, Rudy T A. Chronic catheterization of the spinal subarachnoid space. Physiology & Behavior 1976; 17:1031-6. A midline incision was made on the back of the neck. The muscle was freed at the attachment to the skull exposing the cisternal membrane. The membrane was opened with a stab blade and an 8.5 cm polyethylene (PE-10) catheter was then inserted through the cisternal opening, and passed carefully and caudally into the intrathecal space at the L1-L3 spinal segments. The end of the catheter was tunneled through the subcutaneous space over the frontal bones, flushed with 10 μl saline, and then plugged with a short length of wire Animal testing was performed 5-7 days after intrathecal catheter placement.
To assess mechanical allodynia, the mechanical paw withdrawal threshold was measured with a series of von Frey hairs (range 0.4-15 g). Rats were placed in elevated Perspex enclosures (28 cm×15 cm×18 cm) with wire mesh bases and given 15-20 min to acclimatize to the testing environment. Rats will be allowed to acclimatize for 30 min in a clear plastic cage with a wire mesh bottom. The calibrated von Frey filament fibers were applied to the hindpaw briefly for 6 seconds to determine the paw withdrawal threshold before and after drug injection (intraperitoneally or intrathecally). A series of von Frey filaments with exponentially incremental stiffness (0.4, 0.7, 1.2, 2.0, 3.6, 5.5, 8.5 and 15 g) were used to measure the 50% threshold for hindpaw withdrawal in awake, unrestrained rats. Chaplan S R, Bach F W, Pogrel J W, Chung J M, Yaksh T L. Quantitative assessment of tactile allodynia in the rat paw. Journal of Neuroscience Methods 1994; 53:55-63. Brisk paw withdrawal from the pressure of a filament gently bent against the plantar paw was defined as a positive response, and absence of withdrawal within 6 s as a negative response. Filaments were touched to the hindpaw in sequential ascending or descending order until the threshold of response is crossed (allowing about 10 s between each increment of the von Frey filaments). Each time the threshold is crossed, the direction of stimulus presentation was reversed and the procedure will be resumed. Four responses were collected after the first threshold detection, and the 50% withdrawal thresholds were interpolated. In cases where response thresholds fell outside the range of detection, 15.00 and 0.25 g were, respectively, assigned for continuous negative or positive responses to the limit of stimuli.
All surgical procedures were performed under deep isoflurane anesthesia in 100% O2. The spinal nerve ligation (SNL) was performed as described previously. Kim, S. H., et al., An Experimental Model for Peripheral Neuropathy Produced by Segmental Spinal Nerve Ligation in the Rat, Pain, 1992, 50:355-63. Briefly, a midline incision above the lumbar spine exposed the left L6 transverse process. The process was then removed, the left L5 and L6 spinal nerves were isolated, and both nerves were tightly ligated with 6-0 silk. […]

[3] = molecular target: CB1 (Homo sapiens, UniProt P21554); assay: CB1 functional assay, [35S]GTP-γ-S binding; type: biochemical; design: purchased ES-110-MG; host or cells: CHO membrane extracts
Experimental: A dose response curve was generated at eight concentrations in duplicate on CB1 and CB2 in light of reference agonists.
Membranes (CB1, ES-110-MG or CB2, ES-111-MG) are mixed with GDP (volume:volume) and incubated for at least […] on ice. In parallel, […] are mixed with the beads (volume:volume) just before starting the reaction. The following reagents are successively added in the wells of an Optiplate: 50 μl of ligand, 20 μl of the membranes:GDP mix, 10 μl of assay buffer for agonist testing and 20 μl of the […]: beads mix. The plates are covered with a topseal, shaken on an orbital shaker for 2 min, and then incubated between 30 to 60 min at room temperature. Then the plates are centrifuged for 10 min at 2000 rpm, incubated at room temperature between 1 to 4 hours and counted for 1 min with a PerkinElmer TopCount reader.
Functional activity for acyl hydrazone was evaluated using [^35S]GTP-γ-S assay in CHO membrane extracts expressing recombinant hCB1 receptor or hCB2 receptor. The assay relies on the binding of [^35S]GTP-γ-S, a radiolabeled nonhydrolyzable GTP analogue, to the G protein upon binding of an agonist of the G-protein-coupled receptor. In this system, agonists stimulate [^35S]GTP-γ-S binding whereas neutral antagonist have no effect and inverse agonists decrease [^35S]GTP-γ-S basal binding.
CB1 and CB2 assay data are presented as the mean of two determinations. […] For replicate determinations, the maximum variability tolerated in the test was of ±20% around the average of the replicates.

Chain of CB1 (P21554 whole entry): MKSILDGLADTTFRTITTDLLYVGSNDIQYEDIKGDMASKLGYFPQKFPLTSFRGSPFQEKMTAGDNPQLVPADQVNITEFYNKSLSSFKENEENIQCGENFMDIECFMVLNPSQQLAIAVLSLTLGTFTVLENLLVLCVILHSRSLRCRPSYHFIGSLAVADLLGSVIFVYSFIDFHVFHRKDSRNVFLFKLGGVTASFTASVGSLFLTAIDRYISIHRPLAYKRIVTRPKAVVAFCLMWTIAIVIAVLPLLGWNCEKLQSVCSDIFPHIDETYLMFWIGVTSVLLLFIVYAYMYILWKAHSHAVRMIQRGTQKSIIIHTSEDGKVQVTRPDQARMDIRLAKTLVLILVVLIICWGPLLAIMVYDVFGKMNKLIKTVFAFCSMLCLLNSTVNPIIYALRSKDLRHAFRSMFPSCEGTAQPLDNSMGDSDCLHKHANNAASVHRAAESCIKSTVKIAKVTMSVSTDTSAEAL
T1 sequence (P21554 whole entry): as above

SMILES: CCCCCCN1C(=O)/C(=N\NC(=O)c2ccccc2)c2ccccc21 [Example 6, Benzoic acid [1-n-hexyl-2-oxo-1,2-dihydro-indol-3-ylidene]-hydrazide]
- % Inhibition of Control Specific Binding ([1]; CB1, Test Concentration 1.0E−05 (MD)): 96%
- % of Control Specific Binding 1st ([1]; CB1, Test Concentration 1.0E−05 (MD), 1st determination): 4.5%
- % of Control Specific Binding 2nd ([1]; CB1, Test Concentration 1.0E−05 (MD), 2nd determination): 4.5%
- % of Control Specific Binding Mean ([1]; CB1, Test Concentration 1.0E−05 (MD), mean): 4.5%
- % Inhibition of Control Specific Binding CB1 ([1]; Table 3, concentration not given): 96%
- inhibition at 1 µM ([1]; at 1 μM, specific binding of [3H]-CP55940, CHO membranes): 95.5%
- inhibition at 10 µM ([1]; at 10 μM, specific binding of [3H]-CP55940): 95.5%
- duration of peak threshold ([2]; IP 30 mg/kg, rats): one
- peak paw withdrawal threshold ([2]; IP 30 mg/kg, rats): 15 g
- time of peak effect following administration ([2]; IP 30 mg/kg, rats): ≤ 5 min
- effect on mechanical paw withdrawal threshold ([2]; IP administration of 30 mg/kg in 0.5 ml, rats): produced an increase in mechanical paw withdrawal threshold
- ED50 ([2]; Rattus norvegicus, ip, rats, spinal nerve ligation, 95% CI, read-out: ED50 of the anti-allodynic effect): 5.9 mg/kg
- ED90 of the anti-allodynic effect ([2]; i.p., rats, spinal nerve ligation, 95% CI): 12 (95% CI 9.6-15.5) mg/kg
- effect on paw withdrawal threshold ([2]; intrathecal (IT) administration, at 5 min, rats): short-lived modest increase in paw withdrawal threshold
- behavioral abnormalities or side effects ([2]; rats of the nerve-ligation study): No behavioral abnormalities or side effects were noted
- % Activation Average ([3]; CB1 Functional Activity): 59.65%
- Compound Activity ([3]; CB1 Functional Activity): Agonist
- EC50 ([3]; CB1 Functional Activity, read-out: EC50 (nM) for GTP Binding): 867 nM
- EC50 ([3]; Table 7, mean of two determinations, read-out: [35S]GTP-γ-S (hCB1) EC50 (nM ± SEM)): 867 ± 1.1 nM
- Emax ([3]; Table 7, relative to the efficacy of CP55940): 59.7%
- EC50 ([3]; Table 9, mean of two determinations, read-out: [35S]GTP-γ-S hCB1 EC50 (nM ± SEM)): 867 ± 1.1 nM
- Emax ([3]; Table 9, relative to the efficacy of CP 55,940): 59.7%
